According to US7553867B2, “Furan or thiophene derivative and medicinal use thereof” (Takeda Pharmaceutical Company Limited, priority 2002, dated 2009):

Compound	melting point [°C]
COc1cc(CC(=O)O)ccc1OCc1cc(-c2ccc(C(F)(F)F)cc2)oc1C [Example 6(81), [3-Methoxy-4-({2-methyl-5-[4-(trifluoromethyl)phenyl]-3-furyl}methoxy)phenyl]acetic acid]	139 to 140
Cc1oc(-c2ccc(C(F)(F)F)cc2)cc1COc1cccc(C(C)(C)C(=O)O)c1 [Example 6(85), 2-Methyl-2-[3-({2-methyl-5-[4-(trifluoromethyl)phenyl]-3-furyl}methoxy)phenyl]propionic acid]	127 to 128
Cc1oc(-c2ccc(C(F)(F)F)cc2)cc1COc1ccc(C(C)(C)C(=O)O)cc1 [Example 6(86), 2-Methyl-2-[4-({2-methyl-5-[4-(trifluoromethyl)phenyl]-3-furyl}methoxy)phenyl]propionic acid]	105 to 107
COc1cccc(-c2cc(CSc3nc(C)c(CC(=O)O)s3)c(C)o2)c1 [Example 6(53), [2-({[5-(3-Methoxyphenyl)-2-methyl-3-furyl]methyl}thio)-4-methyl-1,3-thiazol-5-yl]acetic acid]	174 to 176
CCc1oc(-c2ccc(C(F)(F)F)cc2)cc1CCCOc1ccc(F)c(CC(=O)O)c1 [Example 6(47), [5-(3-{2-Ethyl-5-[4-(trifluoromethyl)phenyl]-3-furyl}propoxy)-2-fluorophenyl]acetic acid]	128 to 129
Cc1oc(-c2ccc(F)cc2)cc1COc1cccc(CCCC(=O)O)c1 [Example 6(19), 4-(3-{[5-(4-Fluorophenyl)-2-methyl-3-furyl]methoxy}phenyl)butanoic acid]	98 to 99
COc1ccc(CCC(=O)O)cc1OCc1cc(-c2ccc(C(F)(F)F)cc2)oc1C [Example 6(82), 3-[4-Methoxy-3-({2-methyl-5-[4-(trifluoromethyl)phenyl]-3-furyl}methoxy)phenyl]propionic acid]	128 to 129
COc1cc(OCc2cc(-c3ccc(C(F)(F)F)cc3)oc2C)ccc1CC(=O)O [Example 6(10), [2-Methoxy-4-({2-methyl-5-[4-(trifluoromethyl)phenyl]-3-furyl}methoxy)phenyl]acetic acid]	168 to 169
CCc1oc(-c2ccc(C(F)(F)F)cc2)cc1CCCOc1cc(CC(=O)O)ccc1F [Example 6(46), [3-(3-{2-Ethyl-5-[4-(trifluoromethyl)phenyl]-3-furyl}propoxy)-4-fluorophenyl]acetic acid]	91 to 93
CCc1oc(-c2ccc(C(F)(F)F)cc2)cc1CCCOc1ccc(C(C)(C)C(=O)O)cc1 [Example 6(44), 2-[4-(3-{2-Ethyl-5-[4-(trifluoromethyl)phenyl]-3-furyl}propoxy)phenyl]-2-methylpropionic acid]	102 to 103
CCc1oc(-c2ccc(C(F)(F)F)cc2)cc1CCCOc1ccc(CC(=O)O)cc1 [Example 6(27), [4-(3-{2-Ethyl-5-[4-(trifluoromethyl)phenyl]-3-furyl}propoxy)phenyl]acetic acid]	121 to 122
Cc1oc(-c2ccc(C(F)(F)F)cc2)cc1CCOc1ccc(OCC(=O)O)cc1 [Example 6(23), [4-(2-{2-Methyl-5-[4-(trifluoromethyl)phenyl]-3-furyl}ethoxy)phenoxy]acetic acid]	132 to 133
Cc1oc(-c2ccc(C(F)(F)F)cc2)cc1COc1ccc2cc(CCC(=O)O)ccc2c1 [Example 6(34), 3-[6-({2-Methyl-5-[4-(trifluoromethyl)phenyl]-3-furyl}methoxy)-2-naphthyl]propionic acid]	191 to 192
Cc1oc(-c2ccc(C(F)(F)F)cc2)cc1CC(=O)Nc1cccc(CSCC(=O)O)c1 [Example 4(1), ({3-[({2-Methyl-5-[4-(trifluoromethyl)phenyl]-3-furyl}acetyl)amino]benzyl}thio)acetic acid]	173 to 174
Cc1oc(-c2ccc(C(F)(F)F)cc2)cc1COc1ccc(OC(C)(C)C(=O)O)c(F)c1 [Example 6(68), 2-[2-Fluoro-4-({2-methyl-5-[4-(trifluoromethyl)phenyl]-3-furyl}methoxy)phenoxy]-2-methylpropionic acid]	82 to 83
Cc1oc(-c2cccc(C(F)(F)F)c2)cc1COc1ccc(OC(C)(C)C(=O)O)cc1 [Example 6(63), 2-Methyl-2-[4-({2-methyl-5-[3-(trifluoromethyl)phenyl]-3-furyl}methoxy)phenoxy]propionic acid]	83 to 84
CCc1oc(-c2ccc(C(F)(F)F)cc2)cc1CCCOc1cccc(C(C)(C)C(=O)O)c1 [Example 6(45), 2-[3-(3-{2-Ethyl-5-[4-(trifluoromethyl)phenyl]-3-furyl}propoxy)phenyl]-2-methylpropionic acid]	94 to 95
CCCCc1oc(-c2ccc(C(F)(F)F)cc2)cc1CCCOc1ccc(CC(=O)O)cc1 [Example 6(16), [4-(3-{2-Butyl-5-[4-(trifluoromethyl)phenyl]-3-furyl}propoxy)phenyl]acetic acid]	96 to 97
Cc1oc(-c2ccc(C(F)(F)F)cc2)cc1COc1cccc(C(C)SC(C)(C)C(=O)O)c1 (stereo not drawn) [Example 6(66), 2-Methyl-2-({1-[3-({2-methyl-5-[4-(trifluoromethyl)phenyl]-3-furyl}methoxy)phenyl]ethyl}thio)propionic acid]	75 to 77
CCC(Cc1ccc(OCc2cc(-c3ccc(C(F)(F)F)cc3)oc2C)cc1C)C(=O)O (stereo not drawn) [Example 6(75), 2-[2-Methyl-4-({2-methyl-5-[4-(trifluoromethyl)phenyl]-3-furyl}methoxy)benzyl]butanoic acid]	118 to 119
Cc1oc(-c2ccc(C(F)(F)F)cc2)cc1CCCOc1cccc(CC(=O)O)c1 [Example 6(84), [3-(3-{2-Methyl-5-[4-(trifluoromethyl)phenyl]-3-furyl}propoxy)phenyl]acetic acid]	111 to 113

The next lines start with the values.

melting point [°C]	Compound
130 to 131	Cc1oc(-c2ccc(Cl)cc2)cc1COc1ccc(SC(C)(C)C(=O)O)cc1 [Example 6(114), 2-[(4-{[5-(4-Chlorophenyl)-2-methyl-3-furyl]methoxy}phenyl)thio]-2-methylpropionic acid]
140 to 142	Cc1oc(-c2ccc(C(F)(F)F)cc2)cc1COc1cc(CSC(C)(C)C(=O)O)ccc1Cl [Example 6(99), 2-{[4-Chloro-3-({2-methyl-5-[4-(trifluoromethyl)phenyl]-3-furyl}methoxy)benzyl]thio}-2-methylpropionic acid]
108 to 109	Cc1oc(-c2cccc(C(F)(F)F)c2)cc1COc1ccc(SC(C)(C)C(=O)O)cc1 [Example 6(108), 2-Methyl-2-{[4-({2-methyl-5-[3-(trifluoromethyl)phenyl]-3-furyl}methoxy)phenyl]thio}propionic acid]
118 to 119	Cc1oc(-c2ccc(C(F)(F)F)cc2)cc1COc1cccc(OCC(=O)O)c1 [Example 6(87), [3-({2-Methyl-5-[4-(trifluoromethyl)phenyl]-3-furyl}methoxy)phenoxy]acetic acid]
143 to 144	Cc1oc(-c2ccc(C(F)(F)F)cc2)cc1CCc1ncc(CC(=O)O)o1 [Example 13(5), [2-(2-{2-Methyl-5-[4-(trifluoromethyl)phenyl]-3-furyl}ethyl)-1,3-oxazol-5-yl]acetic acid]
176 to 177	Cc1oc(-c2ccc(C(F)(F)F)cc2)cc1CCc1nc(C(C)C)c(CC(=O)O)s1 [Example 13(3), [4-Isopropyl-2-(2-{2-methyl-5-[4-(trifluoromethyl)phenyl]-3-furyl}ethyl)-1,3-thiazol-5-yl]acetic acid]
117 to 118	Cc1oc(-c2ccc(C(F)(F)F)cc2)cc1/C=C\c1ccc(OC(C)(C)C(=O)O)cc1 [Example 22(2), 2-Methyl-2-[4-((Z)-2-{2-methyl-5-[4-(trifluoromethyl)phenyl]-3-furyl}ethenyl)phenoxy]propionic acid]
104 to 105	CCc1oc(-c2ccc(C(F)(F)F)cc2)cc1CCCOc1cc(CC(=O)O)ccc1Cl [Example 6(98), [4-Chloro-3-(3-{2-ethyl-5-[4-(trifluoromethyl)phenyl]-3-furyl}propoxy)phenyl]acetic acid]
158 to 159	Cc1oc(-c2ccc(C(F)(F)F)cc2)cc1COc1ccc2sc(CSC(C)(C)C(=O)O)cc2c1 [Example 6(107), 2-Methyl-2-({[5-({2-methyl-5-[4-(trifluoromethyl)phenyl]-3-furyl}methoxy)-1-benzothien-2-yl]methyl}thio)propionic acid]
127 to 128	Cc1oc(-c2ccc(C(F)(F)F)cc2)cc1COc1cccc(SC(C)(C)C(=O)O)c1 [Example 6(118), 2-Methyl-2-{[3-({2-methyl-5-[4-(trifluoromethyl)phenyl]-3-furyl}methoxy)phenyl]thio}propionic acid]
129 to 131	CCCc1cc(OCc2cc(-c3ccc(C(F)(F)F)cc3)oc2C)ccc1CCC(=O)O [Example 6(91), 3-[4-({2-Methyl-5-[4-(trifluoromethyl)phenyl]-3-furyl}methoxy)-2-propylphenyl]propionic acid]
168 to 169	Cc1nc(CCc2cc(-c3ccc(C(F)(F)F)cc3)oc2C)sc1CC(=O)O [Example 13(2), [4-Methyl-2-(2-{2-methyl-5-[4-(trifluoromethyl)phenyl]-3-furyl}ethyl)-1,3-thiazol-5-yl]acetic acid]
121 to 122	Cc1ccc(-c2cc(COc3cccc(CSC(C)(C)C(=O)O)c3)c(C)o2)cc1 [Example 6(120), 2-Methyl-2-[(3-{[2-methyl-5-(4-methylphenyl)-3-furyl]methoxy}benzyl)thio]propionic acid]
124 to 126	Cc1cc(-c2ccc(C(F)(F)F)cc2)oc1COc1ccc(CC(C)(C)C(=O)O)cc1 [Example 20(1), 2,2-Dimethyl-3-[4-({3-methyl-5-[4-(trifluoromethyl)phenyl]-2-furyl}methoxy)phenyl]propionic acid]
128 to 129	Cc1oc(-c2ccc(C(F)(F)F)cc2)cc1COc1cccc(-c2cccc(CC(=O)O)c2)c1 [Example 6(126), [3′-({2-Methyl-5-[4-(trifluoromethyl)phenyl]-3-furyl}methoxy)-1,1′-biphenyl-3-yl]acetic acid]
